Entries after “also recorded” stand apart in the source; their conditions may differ.
Key:
[1] = system: global cerebral ischemia, hippocampal CA1 region; experiment: Long-term viable neurons (S6-positive cells) in hippocampal CA1 11 weeks after global cerebral ischemia; conditions: i.v. at onset of reperfusion; 11 weeks (77 days) after reperfusion
Experimental: Animal model of global cerebral ischemia, experimental design and administration of nitrones. Transient forebrain ischemia was induced in adult male Wistar rats (10-12 weeks, Charles River) by the standard four-vessel occlusion model (4V0) previously described. Briefly, both vertebral arteries were irreversibly occluded by electrocoagulation under anaesthesia with a mixture of atropine, ketamine and diazepam (0.25, 62.5, and 5 mg/kg, respectively) administered by intraperitoneal injection. After 24 h, ischemia was induced by carotid occlusion with atraumatic clips for 15 min and then clips were removed from the carotid arteries to allow reperfusion. Body temperature of 37° C. was maintained. Animals were studied at 5 days after reperfusion (R5d). A power analysis was performed (http://www.biomath.info/power/ttest.htm) to determine the sample size. The level of statistical significance was fixed at 0.05, the power set at 0.8 (80%), and the sample size obtained was <6 subjects per group. The treatments were performed with allocation concealment, assigning a random order to each vehicle or treated animal by a computer-generated randomization program. […]
Because of this, a new experimental strategy had to be used, based on the staining of viable neurons and its quantification in the areas of the brain more vulnerable to the ischemic episodes such as the hippocampal CA1 region. […]

global cerebral ischemia [2] = experiment: Neurological deficit score (NDS), therapy window study in global cerebral ischemia; conditions: 5 d
Experimental: Animal model of global cerebral ischemia, experimental design and administration of nitrones. Transient forebrain ischemia was induced in adult male Wistar rats (10-12 weeks, Charles River) by the standard four-vessel occlusion model (4V0) previously described. Briefly, both vertebral arteries were irreversibly occluded by electrocoagulation under anaesthesia with a mixture of atropine, ketamine and diazepam (0.25, 62.5, and 5 mg/kg, respectively) administered by intraperitoneal injection. After 24 h, ischemia was induced by carotid occlusion with atraumatic clips for 15 min and then clips were removed from the carotid arteries to allow reperfusion. Body temperature of 37° C. was maintained. Animals were studied at 5 days after reperfusion (R5d). […] Vehicle-treated control animals were handled in the same way as treated animals.
Evaluation of neurological deficits. Neurological deficits in rats subjected to global cerebral ischemia were blindly evaluated using a scale previously described (Ayuso et al. 2015 J. Med. Chem. 58, 6704-6709; 10.1021/acs.jmedchem.5b00755). […]
Animals were subjected to a functional test before sacrifice in order to quantify their potential disability. […]
The variables quantified to evaluate de neuroprotection of NXY-059, including neurological deficit score (NDS) and neuronal death and apoptosis in brain sections, were performed as described in Example 3. […]

[3] = system: permanent focal cerebral ischemia (pMCAO); experiment: Infarct area/volume by TTC staining after permanent MCA occlusion (pMCAO); type: in vivo, mice; conditions: F2 0.1 mg/kg i.p. at 2 and 12 hours after MCA occlusion
[4] = system: lipid peroxidation and ROS levels; conditions: preliminary results, reference [17]; cited from earlier work
global cerebral ischemia [5] = conditions: intraperitoneal at onset of reperfusion; reference [17]; cited from earlier work
[6] = system: global cerebral ischemia, hippocampal CA1 and cortical regions; experiment: Neuronal apoptosis by TUNEL assay, therapy window study in global cerebral ischemia; conditions: 5 d
Experimental: Animal model of global cerebral ischemia, experimental design and administration of nitrones. Transient forebrain ischemia was induced in adult male Wistar rats (10-12 weeks, Charles River) by the standard four-vessel occlusion model (4V0) previously described. Briefly, both vertebral arteries were irreversibly occluded by electrocoagulation under anaesthesia with a mixture of atropine, ketamine and diazepam (0.25, 62.5, and 5 mg/kg, respectively) administered by intraperitoneal injection. After 24 h, ischemia was induced by carotid occlusion with atraumatic clips for 15 min and then clips were removed from the carotid arteries to allow reperfusion. Body temperature of 37° C. was maintained. Animals were studied at 5 days after reperfusion (R5d). […] The treatments were performed with allocation concealment, assigning a random order to each vehicle or treated animal by a computer-generated randomization program. […] Vehicle-treated control animals were handled in the same way as treated animals. An independent investigator prepared the treatments for each animal according to the randomization schedule.
(§1) Brain sections. After 5 days after reperfusion, R5d animals were killed by transcardiac perfusion performed under deep anaesthesia. Perfusion via left ventricle was started with a washout of 200 mL of 0.9% NaCl, and the brains, following perfusion and fixation with 4% (w/v) paraformaldehyde solution in PBS, were removed and postfixed in the same solution overnight at 4° C. Brains were washed sequentially with 10, 20 and 30% (w/v) saccharose in PBS, embedded in Tissue-Tek O.C.T. (Sakura Finetek) and frozen at −80° C. prior to cryostat sectioning. Brain coronal sections containing the hippocampus were prepared at the level of interaural +5.7±0.2 mm on Real Capillary Gap microscope slides (Dako).
TUNEL assay. Apoptotic neurons within brain sections were detected using the Terminal deoxynucleotidyl transferase-mediated dUTP Nick-End Labeling (TUNEL) assay (Promega). For this test, 5-μm-thick coronal cryostat brain sections containing the dorsal hippocampal formation were obtained as described above and post-fixed with 4% formaldehyde in PBS for 5 min at room temperature. After washing in PBS for three times, sections were permeabilized with 0.1 M sodium citrate, pH 6.0, for 1 min at 95° C., quickly cooled in ice and washed in PBS for 5 min at room temperature. Then, brain sections were incubated with blocking solution (0.1 M Tris-HCl, pH 7.5, 3% bovine serum albumin and 20% fetal bovine serum), washed in PBS for 5 min, and post-fixed with 4% formaldehyde in PBS for 5 min. […]
The hippocampal CA1 subfield and cerebral and lateral cortex fields from a given section were analysed with fluorescence microscopy (40× objective) to count the number of apoptotic nuclei (green).

[7] = system: global cerebral ischemia, hippocampal CA1 and cortical regions; experiment: Neuronal death by Fluoro-Jade B staining, therapy window study in global cerebral ischemia; conditions: 5 d
Experimental: Animal model of global cerebral ischemia, experimental design and administration of nitrones. Transient forebrain ischemia was induced in adult male Wistar rats (10-12 weeks, Charles River) by the standard four-vessel occlusion model (4V0) previously described. Briefly, both vertebral arteries were irreversibly occluded by electrocoagulation under anaesthesia with a mixture of atropine, ketamine and diazepam (0.25, 62.5, and 5 mg/kg, respectively) administered by intraperitoneal injection. After 24 h, ischemia was induced by carotid occlusion with atraumatic clips for 15 min and then clips were removed from the carotid arteries to allow reperfusion. Body temperature of 37° C. was maintained. Animals were studied at 5 days after reperfusion (R5d). […] Ischemic animals were treated with nitrone F2 diluted in 10% ethanol in saline as vehicle by intravenous injection in the tail when the carotid arteries were unclamped for reperfusion. Vehicle-treated control animals were handled in the same way as treated animals.
After 5 days after reperfusion, R5d animals were killed by transcardiac perfusion performed under deep anaesthesia. Perfusion via left ventricle was started with a washout of 200 mL of 0.9% NaCl, and the brains, following perfusion and fixation with 4% (w/v) paraformaldehyde solution in PBS, were removed and postfixed in the same solution overnight at 4° C. Brains were washed sequentially with 10, 20 and 30% (w/v) saccharose in PBS, embedded in Tissue-Tek O.C.T. (Sakura Finetek) and frozen at −80° C. prior to cryostat sectioning. Brain coronal sections containing the hippocampus were prepared at the level of interaural +5.7±0.2 mm on Real Capillary Gap microscope slides (Dako).
(§2) Neuronal death evaluation. Neuronal death was evaluated by Fluoro-Jade-B staining. Brain cryosections (10 μm thick) from ischemic animals that underwent reperfusion for 5 days were used after fixation to detect neuronal death by Fluoro-Jade-B staining (Ayuso et al. 2015 J. Med. Chem. 58, 6704-6709; 10.1021/acs.jmedchem.5b00755) and visualized by fluorescence microscopy. Labelled (dead) neuronal cells (in green) were counted as in TUNEL assay (see below). Data from different animals of each experimental group were independently analysed by two observers, and treatment information was blindly performed throughout the study.
Analysis of results included neuronal damage and death, and a functional test to which the animals were subjected prior to sacrifice. All the results were obtained 5d after post-ischemic reperfusion in a model of global cerebral ischemia.

[8] = system: primary neuronal cultures subjected to oxygen and glucose deprivation; conditions: reference [17]; cited from earlier work
global cerebral ischemia [9] = experiment: Therapeutic window of the neuroprotective effect in global cerebral ischemia; type: in vivo, rat
[10] = system: transient forebrain ischemia (global cerebral ischemia); experiment: Dose-response of neuroprotection (Fluoro-Jade B and TUNEL) in transitory global cerebral ischemia, four-vessel occlusion; conditions: for half effective concentration: i.v. at onset of reperfusion; for half effective concentration / maximal effect (percentage of neuroprotection): 5 days of reperfusion
Experimental: Animal model of global cerebral ischemia, experimental design and administration of nitrones. Transient forebrain ischemia was induced in adult male Wistar rats (10-12 weeks, Charles River) by the standard four-vessel occlusion model (4V0) previously described. Briefly, both vertebral arteries were irreversibly occluded by electrocoagulation under anaesthesia with a mixture of atropine, ketamine and diazepam (0.25, 62.5, and 5 mg/kg, respectively) administered by intraperitoneal injection. After 24 h, ischemia was induced by carotid occlusion with atraumatic clips for 15 min and then clips were removed from the carotid arteries to allow reperfusion. Body temperature of 37° C. was maintained. Animals were studied at 5 days after reperfusion (R5d). […] The treatments were performed with allocation concealment, assigning a random order to each vehicle or treated animal by a computer-generated randomization program. Ischemic animals were treated with nitrone F2 diluted in 10% ethanol in saline as vehicle by intravenous injection in the tail when the carotid arteries were unclamped for reperfusion. Vehicle-treated control animals were handled in the same way as treated animals. An independent investigator prepared the treatments for each animal according to the randomization schedule.
as §1, §2
TUNEL assay. Apoptotic neurons within brain sections were detected using the Terminal deoxynucleotidyl transferase-mediated dUTP Nick-End Labeling (TUNEL) assay (Promega). For this test, 5-μm-thick coronal cryostat brain sections containing the dorsal hippocampal formation were obtained as described above and post-fixed with 4% formaldehyde in PBS for 5 min at room temperature. After washing in PBS for three times, sections were permeabilized with 0.1 M sodium citrate, pH 6.0, for 1 min at 95° C., quickly cooled in ice and washed in PBS for 5 min at room temperature. Then, brain sections were incubated with blocking solution (0.1 M Tris-HCl, pH 7.5, 3% bovine serum albumin and 20% fetal bovine serum), washed in PBS for 5 min, and post-fixed with 4% formaldehyde in PBS for 5 min.

[11] = system: transient focal cerebral ischemia (tMCAO); experiment: Infarct volume by TTC staining after tMCAO; type: in vivo, mice; conditions: 48 h; for infarct volume (as percentages): VEH 19.15±1.08
[12] = system: transient focal cerebral ischemia (tMCAO); experiment: Grip strength test after transient middle cerebral artery occlusion (tMCAO); conditions: for grip strength: 24 hours after reperfusion, VEH 91.76±2.00
Experimental: Transient occlusion of a distal branch of the middle cerebral artery (tMCAO) was induced in male C57BL/6 mice (9-12-week-old, Charles River). […] Briefly, mice were anesthetized with 4% isoflurane for induction and 1.5-2% isoflurane for maintenance (in 79% N2/21% 02). After drilling a small hole on the temporal bone, the middle cerebral artery (MCA) was compressed for 60 min with a 30-G needle using a micromanipulator. During the surgery, body temperature was maintained at 37.0±0.5° C. using a homoeothermic blanket and CBF was monitored using laser-Doppler flowmetry to confirm MCA occlusion. Buprenorphine (0.05-0.1 mg/kg) was administered subcutaneously immediately before the procedure. […] Surgical inclusion criteria: a reduction in blood flow to <25% of baseline value during ischemia period, and a recovery of 75% of baseline value in the reperfusion period. […] The treatments were administered intraperitoneally at the onset of reperfusion period by an investigator blinded to the experimental condition.
Motor functional test was performed at 1 day before surgery and 24 h and 48 h after tMCAO to evaluate ischemic outcomes and monitor motor function by a blinded researcher to experimental conditions. […] A total of 6 trials were conducted for each test and the strength value was calculated as the mean of them.

SOD1 = SOD1 protein levels by western blot in primary neuronal cultures subjected to OGD and recovery
Experimental: Primary Neuronal Cultures. […] Cell suspensions from cerebral cortex were prepared from 16- to 17-day-old Sprague-Dawley rat embryos. Living cells in cell suspension were counted by trypan blue exclusion method. Cells were seeded on plastic multidishes precoated with 0.05 mg/mL poly-D-lysine at a density of 2.5×10^5 cells/cm2 and were kept at 37° C. in a 6.5% CO2 atmosphere in high glucose Dulbecco's medium supplemented with 15% heat-inactivated (56° C. for 30 min) foetal calf serum. […]
Exposure of Cell Cultures to Oxygen—Glucose Deprivation. […] F2 were analysed independently from 4 to 8 times with different batches of cultures, and each experiment was run in quadruplicate.
35-50 μg of protein cell extracts was resolved in 10 or 12% SDS-PAGE and blotted into a polyvinylidene difluoride (PVDF) membrane (GE Healthcare). […] Then, membranes were incubated with horseradish peroxidase-conjugated secondary antibodies for 1 h, developed with the ECL-Clarity (Bio-Rad) or Prime systems (GE Healthcare) and detected in a ChemiDoc imager (Bio-Rad).
The images were quantified using the quantification software ImageLab and Quantity One (Bio-Rad Laboratories). The protein levels were expressed as intensities in arbitrary units (AU).

global cerebral ischemia [13] = experiment: Y-maze spatial recognition or alternation test, long-term after global cerebral ischemia; conditions: i.v. at onset of reperfusion, before sacrifice at 11 weeks, vs healthy control
Experimental: (§3) In addition, animal behaviour was evaluated before sacrifice for the neurological evolution evaluation.
(§4) Animals were subjected to two behavioural tests for their neurological evaluation prior to sacrifice in order to assess the exploratory activity and spatial recognition and memory; the Y-maze paradigm was used to assess these functions. For the first test, the animal is positioned in the centre of the maze, allowing free exploration for 8 minutes. Exploratory activity is quantified and represented as an activity index. For the assessment of the spatial recognition and memory, the number of times the animals alternate among the three arms (triad number) is evaluated and quantified as an alternation index. Lower activity and/or alternation indexes are indications of reduced curiosity and spatial memory and consequently higher neurological deficit.

global cerebral ischemia [14] = experiment: Y-maze exploration activity test, long-term after global cerebral ischemia; conditions: i.v. at onset of reperfusion, before sacrifice at 11 weeks, vs healthy control
Experimental: as §3, §4

[15] = system: permanent focal cerebral ischemia (pMCAO); experiment: Somatosensory evoked potentials after permanent MCA occlusion (pMCAO); conditions: F2 0.1 mg/kg i.p. at 2 and 12 h; 72 hours post-stroke and during total time of study (3 weeks)
Experimental: Evaluation of functional brain territory in stroke mice with pMCAO and treated with F2. (A) Representative somatosensory evoked contralateral potentials recorded before and 72 hours post-stroke in treated (F2) and non-treated (vehicle, control) mice. F2 was administered at 2 and 12 hours after MCA ligation. […] In both groups, the electrical stimulus was twice the current level necessary to obtain a supramaximal motor response, typically 1-2 mA. (B) Amplitude of evoked activity in the somatosensory cortex (forepaw sensory field) in the infarcted (left panel) and non-infarcted (right panel) hemispheres of non-treated (vehicle) and treated (F2) mice over time after stroke. […] Data are presented as the means ±SEM. For every time point analysed, the black asterisks denote significant differences between non-treated (vehicle) and treated (F2) mice (two-way ANOVA followed by Tukey's test; *p<0.05, **p<0.05).
Ipsilateral activity in stroke mice with pMCAO and treated with F2. […] (C) Amplitude of somatosensory evoked activity (forepaw sensory field) in the non-damaged hemisphere of non-treated (vehicle) and treated (F2) mice over time after stroke and F2 or vehicle administration.
Here, the neuroprotective efficacy of this nitrone has been assayed in a model of permanent focal cerebral ischemia in mice. […]

[16] = F2 0.05 mg/kg i.v. 48 h after reperfusion

With `CC(C)CCC[C@@H](C)[C@H]1CC[C@H]2[C@@H]3CCC4=C/C(=[N+](\C)[O-])CC[C@]4(C)[C@H]3CC[C@]12C` [F2, (E)-N-((8S,9S,10R,13R,14S,17R)-10,13-dimethyl-17-((R)-6-methylheptan-2-yl)-7,8,9,11,12,13,14,15,16,17-decahydro-1H-cyclopenta[a]phenanthren-3(2H,6H,10H)-ylidene)methanamine oxide] the “viable neurons (S6-positive cells) in hippocampal CA1” value [1] was “significantly preserves neuronal viability”, the “neurological deficit score (NDS) vs vehicle” value (global cerebral ischemia [2]; [16]) was “did not improve the NDS” and the “infarct volume vs vehicle” value [3] was “significantly reduces infarct volume”. For the same compound, the “infarcted area (TTC staining) vs non-treated” value ([3]; 48 hours) was “lower infarcted area”, the “lipid peroxidation and ROS levels” value [4] was “both decreased” and the “neuronal death and apoptosis in hippocampus and cortex” value (global cerebral ischemia [5]) was “decreased neuronal death and apoptosis”. The “neuronal apoptosis (TUNEL) vs vehicle” value ([6]; F2 0.05 mg/kg i.v. at 6 h after reperfusion) was “significant in both hippocampus and cerebral cortex”, the “neuronal apoptosis (TUNEL) vs vehicle” value ([6]; F2 0.05 mg/kg i.v. at 48 h after reperfusion) was “did not afford a significant decrease in the apoptosis” and the “neuronal apoptosis (TUNEL) vs vehicle” value ([6]; F2 0.05 mg/kg i.v., maximum effect at 0-3 hours after onset of reperfusion) was “significant reduction of apoptosis”. For the same compound, the “neuronal death (Fluoro-Jade B) vs vehicle” value [7, 16] was “did not afford a significant decrease in the neuronal damage”, the “neuronal death (Fluoro-Jade B) vs vehicle” value ([7]; F2 0.05 mg/kg i.v. between 0 and 6 h after reperfusion, CA1 and cortex) was “significantly decreased neuronal death” and the “neuroprotective effect (cell viability) after OGD” value [8] was “good neuroprotective effect in the micromolar range”. The “administration time of maximum neuroprotective effect after reperfusion onset” value (global cerebral ischemia [9]; F2 0.05 mg/kg i.v.) was 0 to 3 h, the “therapeutic window of neuroprotective effect, time after onset of reperfusion” value (global cerebral ischemia [9]; F2 0.05 mg/kg i.v.) was no more than 6 h and the half effective concentration ([10]; cerebral cortex) was 0.015 mg/kg. The “maximal effect (percentage of neuroprotection)” value ([10]; cerebral cortex, reached at 0.05 mg/kg i.v. at onset of reperfusion) was 81%, the “most effective dose in decreasing neuronal death and apoptosis” value ([10]; doses 0.01-0.1 mg/kg i.v., 5 days after reperfusion) was 0.05 mg/kg and the “maximal effect (percentage of neuroprotection)” value ([10]; hippocampal region CA1, at 0.05 mg/kg i.v. at onset of reperfusion) was 35%. The half effective concentration ([10]; hippocampal region CA1) was 0.025 mg/kg, the “decrease of infarct volume respect to NXY059” value ([11]; 0.1 mg/kg F2, p<0.05) was 20.27% and the “decrease of infarct volume respect to control VEH” value ([11]; 0.1 mg/kg F2, p<0.05) was 15.20%. For the same compound, the “infarct volume (as percentages)” value ([11]; F2 0.1 mg/kg i.p. at onset of reperfusion) was 16.24±0.85%, the grip strength ([12]; 0.05 mg/kg F2 i.p. at onset of reperfusion) was 110.2±5.14 grams and the grip strength ([12]; 0.1 mg/kg F2 i.p. at onset of reperfusion) was 113.2±5.35 grams. For the same compound, the “grip strength values vs vehicle” value ([12]; F2 0.05 or 0.1 mg/kg at onset of reperfusion, 24 h and 48 h after reperfusion) was “improved grip strength values”, the SOD1 levels (SOD1; 5 μM F2, 2 h after OGD, vs untreated and control groups) was “significant increase of SOD1 levels” and the “enhancement of the SOD1 increase caused by OGD alone” value (SOD1; 5 μM F2, 24 h after OGD) was 15%. For the same compound, the “alternation index (spatial recognition test, Y-maze)” value (global cerebral ischemia [13]) was “no significant differences when compared to the scores of the control group”, the “activity index (exploration activity test, Y-maze)” value (global cerebral ischemia [14]) was “activity scores that were equivalent to those observed in the control group” and the “somatosensory evoked cortical response, damaged hemisphere (right)” value [15] was “preserved cortical response”.

With `CC(C)(C)[N+]([O-])=Cc1ccc(S(=O)(=O)[O-])cc1S(=O)(=O)[O-].[Na+].[Na+]` [NXY-059, reference compound] the “viable neurons (S6-positive cells) in hippocampal CA1” value [1] was “did not recover the damage observed”, the “neurological deficit score (NDS) vs vehicle” value (global cerebral ischemia [2]; NXY-059 40 mg/kg i.v. 0-48 h after reperfusion) was “did not improve the NDS” and the “neuronal apoptosis (TUNEL) vs vehicle” value ([6]; NXY-059 40 mg/kg i.v. between 0 and 48 h after reperfusion) was “did not afford a significant decrease in the neuronal apoptosis”. The “neuronal death (Fluoro-Jade B)” value ([7]; NXY-059 40 mg/kg i.v. 1-48 h after reperfusion) was “did not induce a decrease in neuronal damage”, the “neuronal death (Fluoro-Jade B)” value ([7]; NXY-059 40 mg/kg i.v. at reperfusion onset (0 h), 40 mg/kg) was “lower neuroprotective effect; also recorded: only induced a significant decrease of neuronal damage administered at the onset of the reperfusion” and the therapeutic window (global cerebral ischemia [9]; NXY-059 40 mg/kg i.v., compared to F2) was “narrow therapeutic window compared to F2”. The “infarct volume (as percentages)” value ([11]; NXY-059 40.0 mg/kg i.p. at onset of reperfusion) was 20.37±0.93%, the “alternation index (spatial recognition test, Y-maze)” value (global cerebral ischemia [13]) was “no significant differences when compared to the scores of the control group” and the “activity index (exploration activity test, Y-maze)” value (global cerebral ischemia [14]) was “neurological deficit was similar to the one obtained for VEH”.

Reference: US20230122393A1, “STEROIDAL NITRONE F2 FOR USE IN THE PREVENTION AND/OR TREATMENT OF PERMANENT CEREBRAL ISCHAEMIA” (ISQUAEMIA BIOTECH, S.L., priority 2020, published 2023)
